{
  "source": "patent US8680113B2",
  "about": "“BMI-1 protein expression modulators” (PTC Therapeutics, Inc., priority 2008, dated 2014)",
  "data": [
    {"tested_on": "Bmi-1", "experiment": "Sandwich ELISA Assay (Bmi-1 ELISA in HT-1080 cells)", "format": "cell-based, human", "summary_of_the_method": "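HT-1080 cells (8000/well) were treated with compounds in 0.5% final DMSO for 40-48 h at 37°C and then lysed. Bmi-1 in lysates was measured by sandwich ELISA: overnight capture at 4°C on mouse monoclonal, rabbit anti-Bmi-1 detection, HRP anti-rabbit, TMB. OD450 was read with an OD570 reference against a recombinant GST-Bmi-1 standard curve (0-8000 pg/mL).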", "units": {"IC50": "nM"}, "values": [
      {"compound": "Cc1ccc(Nc2nccc(-c3c(C)nc4ncccn34)n2)cc1", "note": "[Cpd 168, 4-(2-methylimidazo[1,2-a]pyrimidin-3-yl)-N-(4-methylphenyl)pyrimidin-2-amine]", "IC50": "< 500"},
      {"compound": "CC(=O)c1ccc(Nc2nc(-c3c(C)nc4cc(C)ccn34)cs2)cc1", "note": "[Cpd 33, 1-(4-{[4-(2,7-dimethylimidazo[1,2-a]pyridin-3-yl)-1,3-thiazol-2-yl]amino}phenyl)ethanone]", "IC50": "< 500"},
      {"compound": "COc1ccc(N(C)c2nccc(-c3c(C)nc4ncccn34)n2)cc1", "note": "[Cpd 47, N-(4-methoxyphenyl)-N-methyl-4-(2-methylimidazo[1,2-a]pyrimidin-3-yl)pyrimidin-2-amine]", "IC50": "< 500"},
      {"compound": "COCCOc1cc(Br)c(Nc2nc(-c3c(C)nc4ncccn34)cs2)c(Br)c1", "note": "[Cpd 23, N-(2,6-dibromo-4-(2-methoxyethoxy)phenyl)-4-(2-methylimidazo[1,2-a]pyrimidin-3-yl)thiazol-2-amine]", "IC50": "1000 to 3000"},
      {"compound": "COCCOc1cc(Br)c(Nc2nc(-c3c(C)nc4ccccn34)cs2)c(Br)c1", "note": "[Cpd 54, N-[2,6-dibromo-4-(2-methoxyethoxy)phenyl]-4-(2-methylimidazo[1,2-a]pyridin-3-yl)-1,3-thiazol-2-amine]", "IC50": "< 500"},
      {"compound": "Clc1cc(Cl)c(Nc2nc(-c3cnc4ccc(Cl)cn34)cs2)c(Cl)c1", "note": "[Cpd 136, 4-(6-chloroimidazo[1,2-a]pyridin-3-yl)-N-(2,4,6-trichlorophenyl)-1,3-thiazol-2-amine]", "IC50": "500 to 1000"},
      {"compound": "Cc1nc2ncccn2c1-c1nc(Nc2ccc(Br)cc2)sc1C", "note": "[Cpd 121, N-(4-bromophenyl)-5-methyl-4-(2-methylimidazo[1,2-a]pyrimidin-3-yl)-1,3-thiazol-2-amine]", "IC50": "< 500"},
      {"compound": "Cc1nc2ccc(F)cn2c1-c1csc(Nc2ccc3c(c2)OCO3)n1", "note": "[Cpd 158, N-(1,3-benzodioxol-5-yl)-4-(6-fluoro-2-methylimidazo[1,2-a]pyridin-3-yl)-1,3-thiazol-2-amine]", "IC50": "< 500"},
      {"compound": "Cc1nc2ccc(Br)cn2c1-c1csc(Nc2ccc(I)cc2)n1", "note": "[Cpd 101, 4-(6-bromo-2-methylimidazo[1,2-a]pyridin-3-yl)-N-(4-iodophenyl)-1,3-thiazol-2-amine]", "IC50": "< 500"},
      {"compound": "COc1ccc(Nc2nccc(-c3cnc4ccccn34)n2)cc1", "note": "[Cpd 245, 4-(imidazo[1,2-a]pyridin-3-yl)-N-(4-methoxyphenyl)pyrimidin-2-amine]", "IC50": "< 500"},
      {"compound": "Cc1nc2ccc(F)cn2c1-c1csc(Nc2ccc(C(C)(C)C)cc2)n1", "note": "[Cpd 164, N-(4-tert-butylphenyl)-4-(6-fluoro-2-methylimidazo[1,2-a]pyridin-3-yl)-1,3-thiazol-2-amine]", "IC50": "< 500"},
      {"compound": "Brc1ccc(Nc2nccc(-c3cnc4ncccn34)n2)cc1", "note": "[Cpd 270, N-(4-bromophenyl)-4-(imidazo[1,2-a]pyrimidin-3-yl)pyrimidin-2-amine]", "IC50": "< 500"},
      {"compound": "COc1cc(C)c(Nc2nccc(-c3c(C)nc4ccccn34)n2)c(C)c1", "note": "[Cpd 141, N-(4-methoxy-2,6-dimethylphenyl)-4-(2-methylimidazo[1,2-a]pyridin-3-yl)pyrimidin-2-amine]", "IC50": "< 500"},
      {"compound": "CCc1nc2ncccn2c1-c1csc(Nc2ccc(OC)cc2)n1", "note": "[Cpd 144, 4-(2-ethylimidazo[1,2-a]pyrimidin-3-yl)-N-(4-methoxyphenyl)-1,3-thiazol-2-amine]", "IC50": "< 500"},
      {"compound": "CC(=O)c1ccc(Nc2nc(-c3c(C)nc4cc(Cl)ccn34)cs2)cc1", "note": "[Cpd 244, 1-(4-{[4-(7-chloro-2-methylimidazo[1,2-a]pyridin-3-yl)-1,3-thiazol-2-yl]amino}phenyl)ethanone]", "IC50": "< 500"},
      {"compound": "Cc1ccc2nc(C)c(-c3csc(Nc4ccc(N(C)C)cc4)n3)n2c1", "note": "[Cpd 70, N′-[4-(2,6-dimethylimidazo[1,2-a]pyridin-3-yl)-1,3-thiazol-2-yl]-N,N-dimethylbenzene-1,4-diamine]", "IC50": "< 500"},
      {"compound": "Cc1nc2ccc(Cl)cn2c1-c1csc(Nc2cccc(O)c2)n1", "note": "[Cpd 210, 3-{[4-(6-chloro-2-methylimidazo[1,2-a]pyridin-3-yl)-1,3-thiazol-2-yl]amino}phenol]", "IC50": "< 500"},
      {"compound": "COCCOc1ccc(Nc2nc(-c3c(C)nc4ccccn34)cs2)cc1", "note": "[Cpd 52, N-[4-(2-methoxyethoxy)phenyl]-4-(2-methylimidazo[1,2-a]pyridin-3-yl)-1,3-thiazol-2-amine]", "IC50": "< 500"},
      {"compound": "Cc1nc2ccccn2c1-c1ccnc(Nc2ccc(Cl)cc2)n1", "note": "[Cpd 113, N-(4-chlorophenyl)-4-(2-methylimidazo[1,2-a]pyridin-3-yl)pyrimidin-2-amine]", "IC50": "< 500"},
      {"compound": "CCCc1nc2ccccn2c1-c1csc(Nc2ccc(Cl)cc2)n1", "note": "[Cpd 178, N-(4-chlorophenyl)-4-(2-propylimidazo[1,2-a]pyridin-3-yl)-1,3-thiazol-2-amine]", "IC50": "< 500"},
      {"compound": "Cc1ccc2nc(C)c(-c3csc(Nc4ccc(Br)cc4)n3)n2c1", "note": "[Cpd 77, N-(4-bromophenyl)-4-(2,6-dimethylimidazo[1,2-a]pyridin-3-yl)-1,3-thiazol-2-amine]", "IC50": "< 500"},
      {"compound": "COc1cc(F)c(Nc2nc(-c3c(C)nc4ncccn34)cs2)c(F)c1", "note": "[Cpd 20, N-(2,6-difluoro-4-methoxyphenyl)-4-(2-methylimidazo[1,2-a]pyrimidin-3-yl)thiazol-2-amine]", "IC50": "1000 to 3000"},
      {"compound": "CCc1nc2ncccn2c1-c1csc(Nc2ccc(N(C)C)cc2)n1", "note": "[Cpd 145, N′-[4-(2-ethylimidazo[1,2-a]pyrimidin-3-yl)-1,3-thiazol-2-yl]-N,N-dimethylbenzene-1,4-diamine]", "IC50": "< 500"},
      {"compound": "COc1ccc(Nc2nc(-c3c(C)nc4ccc(F)cn34)cs2)cc1", "note": "[Cpd 160, 4-(6-fluoro-2-methylimidazo[1,2-a]pyridin-3-yl)-N-(4-methoxyphenyl)-1,3-thiazol-2-amine]", "IC50": "< 500"},
      {"compound": "CCOc1ccc(Nc2nccc(-c3c(C)nc4ncccn34)n2)cc1", "note": "[Cpd 116, N-(4-ethoxyphenyl)-4-(2-methylimidazo[1,2-a]pyrimidin-3-yl)pyrimidin-2-amine]", "IC50": "< 500"},
      {"compound": "Fc1ccc(Nc2nccc(-c3cnc4ccccn34)n2)cc1", "note": "[Cpd 248, N-(4-fluorophenyl)-4-(imidazo[1,2-a]pyridin-3-yl)pyrimidin-2-amine]", "IC50": "< 500"}
    ]}
  ]
}
